We go through 2 compounds from paper PMC10489651, “Six New Phenolic Glycosides from the Seeds of Moringa oleifera Lam. and Their α-Glucosidase Inhibitory Activity” (Molecules, 2023).

The target in this assay is α-glucosidase. Put plainly: colorimetric α-glucosidase inhibition assay (p-nitrophenyl glucopyranoside substrate, […] nm). The class given is biochemical.

With `C[C@@H]1O[C@@H](Oc2ccc(Cc3cc(CC#N)ccc3O)cc2)[C@H](O)[C@H](O)[C@H]1O` [compound 4, 4-(α-L-rhamnopyranosyl) benzyl-1′-hydroxy-4′-phenylacetonitrile], the IC50 – broadly, the concentration at which inhibition is half-maximal – was 382.8 ± 1.42 µM.

Compound `C[C@@H]1O[C@@H](Oc2ccc(C/C(=N/OS(=O)(=O)O)S[C@@H]3O[C@H](CO)[C@@H](O)[C@H](O)[C@H]3O)cc2)[C@H](O)[C@H](O)[C@H]1O` [compound 16, glucomoringin] showed an IC50 of 301 ± 6.22 µM.
